According to EP1072673A2, “Perfume compositions” (THE PROCTER & GAMBLE COMPANY, priority 1999, dated 2001):

Experiment: Bleach stability index (BSI) test: % AvO loss of perfumed bleach product in accelerated aging, by iodometric titration
Conditions: perfume ingredient at 0.2% via AE3S in PAP finished product, pH 3.8; 2 weeks at 40°C; BSI of at least 80% = not more than 20% AvO loss
Protocol: For this test, the pure perfume chemicals to be tested were diluted at 0.2% via a solubiliser, namely C10-C18 sodium alkyl sulfate condensed with an average of three moles of ethylene oxide (AE3S), then incorporated in a finished product and then subjected to the accelerated aging test. The accelerated aging test is set up as follows: 15 to 20g of each of the finished product incorporating the perfume ingredient was taken and placed in an oven for 2 weeks at 40°C. The aged samples were compared versus freshly made perfumed product (The reference) by measuring the AvO before storage from the reference and after storage from the aged product and expressing the difference in AvO as % loss.
The loss of available oxygen (AvO) of a bleach-containing composition over time can be measured with the iodometric titration method in which the bleach is reduced by excess potassium iodide and the iodine formed is determined by titration with sodium thiosulphate.

| Molecule | bleach stability index (BSI) |
| --- | --- |
| OCC=Cc1ccccc1 [3-Phenyl-2-propen-1-ol] | at least 80% |
| CCCCCCC=CC(=O)OC [Beauvertate, methyl-2-nonenoate] | at least 80% |
| CC(C)=CCCC(C)CC=O (stereo not shown) [Citronellal, 3,7-Dimethyl-6-octen-1-al] | at least 80% |
| C=CC(C)CCCC(C)(C)O (stereo not shown) [Dihydro myrcenol, 2,6-dimethyl-7-octen-2-ol] | at least 80% |
| CCOC(=O)C1=C(C)C=CCC1(C)C [Ethyl safranate, ethyl 2,6,6-trimethyl-1,3-cyclohexdiene-1-carboxylate] | at least 80% |
| CC1=CC(C)C(CO)CC1 (stereo not shown) [Floralol, dimethyl cyclohexene methanol] | at least 80% |
| C=CC(C)(O)CCC=C(C)C (stereo not shown) [Linalool, 3,7-Dimethyl-1,6-octadien-3-ol] | at least 80% |
| CC=CC(=O)C1C(C)=CCCC1(C)C (stereo not drawn) [alpha-damascone, 2-Buten-1-one, 1-(2,6,6-trimethyl-2-cyclohexen-1-yl)-] | at least 80% |
| C=C(C=O)C(C)CCC=C(C)C (stereo not shown) [bergamal] | at least 80% |
| CC1=CCC(CC#N)C1(C)C (stereo not shown) [cantryl] | at least 80% |
| OC/C=C/c1ccccc1 [cinnamic alcohol] | at least 80% |
| CC(C)=CCCC(C)CCO (stereo not shown) [citronellol, 3,7-dimethyl-6-octen-1-ol] | at least 80% |
| CCCCCCC(C=O)=Cc1ccccc1 [hexyl cinnamic aldehyde] | at least 80% |
| CC(=O)/C=C/C1=C(C)CCCC1(C)C [ionone beta] | at least 80% |
| CC(C)C=CC(=O)CC(C)C [isotagetone 50, 2,7-Dimethyloct-5-en-4-one] | at least 80% |
| C=CC(C)(CCC=C(C)C)OC(C)=O (stereo not shown) [linalyl acetate] | at least 80% |
| CC(C)(O)CCCC1=CCC(C=O)CC1 (stereo not shown) [lyral] | at least 80% |
| CC1(C)CCCC2=C1CC(C=O)CC2 (stereo not shown) [melafleur] | at least 80% |
| CC(C)=CCOC(=O)c1ccccc1O [prenyl salicylate] | at least 80% |
| C=CCCCCCCCCO [rosalva, 9-Decen-1-ol] | at least 80% |
| CCC/C=C/CO [trans-2-hexenol] | at least 80% |

Next, values leading:

| bleach stability index (BSI) | Molecule |
| --- | --- |
| at least 80% | 2,5,10-Trimethyl-2,5,9-cyclododecatrien-1-yl methyl ketone & isomers [trimofix o] |
| at least 80% | CC(C)CCCC1=CCC(C)(C=O)CC1 (stereo not shown) [1-Methyl-4-(4-methylpentyl)-3-cyclohexenecarbaldehyde] |
| at least 80% | C=CC(C)(C#N)Cc1ccccc1 (stereo not shown) [2-Benzyl-2-methyl-3-butenenitril] |
| at least 80% | CC=CC(=O)C1=C(C)CCCC1(C)C [2-Buten-1-one, 1-(2,6,6-trimethyl-1-cyclohexen-1-yl)-] |
| at least 80% | CC(CO)CC(C)c1ccccc1 (stereo not shown) [2-Methyl-4-phenyl-1-pentanol] |
| at least 80% | CC=CC(=O)OC1CCCC1C1CCCC1 (stereo not shown) [2-cyclopentyl-cyclopentyl 2-butenoate] |
| at least 80% | CC(C)=CCCC(C)=CC#N [3,7-dimethyl-2,6-octadienenitrile] |
| at least 80% | C=CCCCCCCCC=CCC#N [3,12-tridecadiene nitrile] |
| at least 80% | CC=C1CC2CC1C1CCCOC21 (stereo not shown) [5,8-Methano-2H-1-benzopyran, 6-ethylideneoctahydro-] |
| at least 80% | CC=CC(=O)OC(C)CC(C)C (stereo not shown) [Frutinat.exp, 4-methyl-pentan-2-ol 2-butenoate] |
| at least 80% | CC=CC(=O)OCCCCCC [Hexyl crotonate, hexyl 2-butenoate] |
| at least 80% | C=CC(=C)CCCC(C)(C)OC(C)=O [Myrcenyl acetate crude, 3-methylene-7-methyl-1-octen-7-yl acetate] |
| at least 80% | CC(=O)OCC=C(C)C [Prenyl acetate, 2-methylbuten-2-ol-4-acetate] |
| at least 80% | CC1=CCC(CCC(C)C(C)O)C1(C)C (stereo not shown) [Sandalore, 5-(2,2,3-Trimethyl-3-cyclopentenyl)-3-methylpentan-2-ol] |
| at least 80% | CCC(=CCC1CC=C(C)C1(C)C)CO (stereo not shown) [Sanjinol, 2-Ethyl-4-(2,2,3-trimethyl-3-cyclopenten-1-yl)-2-buten-1-ol] |
| at least 80% | C=CCOC(=O)COCCC(C)C [allyl amyl glycolate] |
| at least 80% | O=C1CCCC=CCCCCCCCCCC1 [ambretone] |
| at least 80% | C=CC(O)CCCCC (stereo not shown) [amyl vinyl carbinol] |
| at least 80% | CC(=O)OCCC(C)CCC=C(C)C (stereo not shown) [citronellyl acetate] |
| at least 80% | O=c1ccc2ccccc2o1 [coumarin, 1,2-benzopyrone] |
| at least 80% | CC(=O)/C=C/C1C(C)=CCCC1(C)C (stereo not drawn) [ionone alpha] |
| at least 80% | C/C=C(/C)C(=O)OCC(C)C [isobutyl angelate] |
| at least 80% | COC(=O)c1ccccc1N=CC1CCC(C)=CC1C (stereo not shown) [ligantraal, Methyl 2-((-1-(2,4-dimethyl-3-cyclohexenyl)methylidene)amino)-1-benzenecarboxylate] |
| at least 80% | CCCC(C)C=Nc1ccccc1C(=O)OC (stereo not shown) [mevantraal (q), Methyl 2-((-2-methylpentylidene)amino)-1-benzenecarboxylate] |
| at least 80% | CCC/C=C/C=O [trans-2-hexenal] |
| at least 80% | CCC=C(C)C(O)CCCCC (stereo not shown) [undecavertol, 4-Methyl-3-decen-5-ol] |

Experiment: not given
Conditions: pH 3.8

| Molecule | bleach stability index (BSI) |
| --- | --- |
| CCC(=O)OC1CC2CC1C1CC=CC21 (stereo not shown) [Frutene, tricyclo decenyl propionate] | at least 80% |
| C=CCOC(=O)COCCCCC [glycolic acid, 2-pentyloxy:allyl ester] | at least 80% |
